Measurements published in US20240252446A1, “DERIVATIZED COLLAGEN-HYALURONIC ACID BASED IMPLANTS FOR SUSTAINED DELIVERY OF OPHTHALMIC DRUGS” (SUSTAINED DRUG DELIVERY LLC, priority 2023, published 2024).

Experiment: Evaluation of active agent release in vitro from polymerized collagen-hyaluronic acid film (HPLC)
Assay type: physicochemical
Conditions: from UV-polymerized (18 min, 254 nm) collagen-hyaluronic acid film, 0.01 M phosphate buffer pH 7.4, 37° C., 1 hour to 3 months
Description: Four round pieces of 35 mm diameter polymerized film were cut into 4 sections and placed in 1.5 mL vials containing 1 mL of 0.01 M phosphate buffer at a pH of 7.4. The 16 vials were placed in a controlled temperature chamber at 37° C. Five aliquots of 100 μL were removed from 2 vials each at 1 hour, 3 days, 7 days, 2 weeks, 1 month, 2 months, and 3 months. Two vials were reserved for additional time periods if release was still noted at 3 months. Four vials of buffer only were used for controls.
Active agent concentration (e.g., Latanoprost) was measured by HPLC at Millennium Research Laboratories. Detection at nanogram levels was validated using active agent (e.g., Latanoprost) standards and concentration curves.

Structure (SMILES): CC(C)OC(=O)CCC/C=C\C[C@@H]1[C@@H](CC[C@@H](O)CCc2ccccc2)[C@H](O)C[C@@H]1O [Latanoprost, 13,14-dihydro-17-phenyl-18,19,20-trinor-prostaglandin F2a-1-isopropyl ester]
- Active agent release profile: initial bolus release at 1 day followed by sustained, zero order release through 3 months
